Data on 1 compound can be found in patent US6849650B2, “Heterocyclic compounds, pharmaceutical compositions comprising same, and methods for inhibiting β-amyloid peptide release and/or its synthesis by use of such compounds” (Athena Neurosciences, Inc., priority 1998, dated 2005).

A word on the melting point: it is the temperature, or range, at which the solid turns liquid.

The structures appear in SMILES notation.

For `COC(=O)C1(Cc2ccccc2)CNC(C(C)NC(=O)Cc2cc(F)cc(F)c2)=N1` (stereo not shown) [Example 5, 2-[1-(3,5-difluorophenylacetamido)ethyl]-4-methoxycarbonyl-4-phenylmethyl-2-imidazoline], the melting point fell in the range of 158 to 160 °C.
